Assay results published in PMC2879659 (International journal of comparative psychology / ISCP ; …, 2010).

What was measured:
zebrafish = details: ref Lau et al., 2010; cited from earlier work
zebrafish (Danio rerio) [1] = assay: Novel dive tank test; details: 3 min exposure
zebrafish (Danio rerio) [2] = assay: Novel aquatic light/dark plus maze test; assay type: in vivo; details: for time frozen in the center of the maze: PETCO San Antonio zebrafish, N = 5-6, controls 81 ± 48 s
zebrafish (Danio rerio) [3] = details: cited from earlier work; for bottom dwelling by zebrafish, effect: another study, ref Bencan, Sledge, & Levin, 2009
zebrafish (Danio rerio) [4] = details: 0.05 h, 125 ug/mL
[5] = 25 mg/L, Aquatic Eco-Systems zebrafish, N = 9
[6] = 25 mg/L, PETCO zebrafish, N = 8
[7] = 125 mg/L, PETCO zebrafish, N = 4, not significant vs untreated
[8] = 50 and 100 mg/L, zebrafish from PETCO San Antonio, TX
[9] = nicotine 25 mg/L, AB, WIK, PETCO and GloFish lines

Structure (SMILES): CNC1=Nc2ccc(Cl)cc2C(c2ccccc2)=[N+]([O-])C1 [chlordiazepoxide]
- time spent on the light side of a tank, effect (zebrafish): increased the amount of time zebrafish spent on the light side of a tank
- time spent in top 2/3 of dive tank, effect vs controls (zebrafish (Danio rerio) [1]; [5]): did not differ from untreated control fish
- total arm entries, effect (zebrafish (Danio rerio) [2]; [5]): did not differ in total arm entries
- time in the white arms (zebrafish (Danio rerio) [2]; 25 mg/L, Aquatic Eco-Systems zebrafish, N = 9, controls 60 ± 10 s): 124 ± 25 s
- white arm entries, % of total entries (zebrafish (Danio rerio) [2]; 25 mg/L, Aquatic Eco-Systems zebrafish, N = 9, untreated 22 ± 2%): 36 ± 5%

Structure (SMILES): CN(C)CCCC1(c2ccc(F)cc2)OCc2cc(C#N)ccc21 (stereo not shown) [citalopram]
- anxiolytic behaviors in the plus maze (zebrafish (Danio rerio) [2]; 100 mg/L, Aquatic Eco-Systems zebrafish): neither desipramine nor citalopram produced any anxiolytic behaviors in the plus maze
- total arm entries, effect (zebrafish (Danio rerio) [2]; 100 mg/L, Aquatic Eco-Systems zebrafish, N = 9): did not differ in total arm entries

Structure (SMILES): COC(=O)[C@@H]1[C@H]2C[C@H]3c4[nH]c5ccccc5c4CCN3C[C@@H]2CC[C@@H]1O [yohimbine]
- time spent in top 2/3 of dive tank, effect vs controls (zebrafish (Danio rerio) [1]; [5]): did not differ from untreated control fish
- total arm entries, effect (zebrafish (Danio rerio) [2]; [5]): did not differ in total arm entries

Structure (SMILES): O=C1CC2(CCCC2)CC(=O)N1CCCCN1CCN(c2ncccn2)CC1 [buspirone]
- bottom dwelling by zebrafish, effect (zebrafish (Danio rerio) [3]): reduced bottom dwelling

Structure (SMILES): CN1C(=O)CN=C(c2ccccc2)c2cc(Cl)ccc21 [diazepam]
- bottom dwelling by zebrafish, effect (zebrafish (Danio rerio) [3]): reduced bottom dwelling

Structure (SMILES): C[S+](C)[O-] [DMSO]
- time spent in top 2/3 of dive tank, effect vs controls (zebrafish (Danio rerio) [1]; 0.05% DMSO, PETCO zebrafish): no significant anxiolytic effect
- total arm entries, effect vs controls (zebrafish (Danio rerio) [2]; 0.05% DMSO, PETCO zebrafish, N = 8): significant increase in total arm entries
- time in white arms, effect vs controls (zebrafish (Danio rerio) [2]; 0.05% DMSO, PETCO zebrafish, N = 8, p < 0.05): spent significantly more time in white arms than untreated controls

Structure (SMILES): CCO [ethanol]
- time spent in top 2/3 of dive tank, effect vs controls (zebrafish (Danio rerio) [1]; 0.5% ethanol, PETCO zebrafish, p = 0.08): non-significant trend toward zebrafish spending more time in the top 2/3 of the tank
- total arm entries, effect vs controls (zebrafish (Danio rerio) [2]; 0.5% ethanol, PETCO zebrafish, N = 7): significant increase in total arm entries
- time in white arms (zebrafish (Danio rerio) [2]; 0.5% ethanol, PETCO zebrafish, N = 7, untreated controls 41 ± 17 s): 126 ± 20 s

Structure (SMILES): CN1CCC[C@H]1c1cccnc1 [nicotine]
- time at the dive tank top (zebrafish (Danio rerio) [4]): 4 ± 4 s
- bottom dwelling in novel dive tanks, effect (zebrafish (Danio rerio) [3]; 50 and 100 mg/L, previous studies, ref Levin et al., 2007): reduced zebrafish bottom dwelling at earlier time points
- time spent in top of dive tank, effect vs untreated (zebrafish (Danio rerio) [1]; [6]): Neither 25 mg/L nicotine (NIC) nor 0.05% DMSO affected behavior in the dive tank
- time spent in top of dive tank, effect vs untreated (zebrafish (Danio rerio) [1]; nicotine 25 mg/L, AB, WIK, PETCO and GloFish lines, 5 min test): no significant anxiolytic effect
- arm entries, effect vs controls (zebrafish (Danio rerio) [2]; [6]): Neither nicotine nor desipramine exposure had any effect on arm entries
- time frozen in the center of the maze (zebrafish (Danio rerio) [2]; 50 mg/L): 9 ± 5 s
- time frozen in the center of the maze (zebrafish (Danio rerio) [2]; 100 mg/L): 198 ± 46 s
- % of white entries (zebrafish (Danio rerio) [2]; [7]): 25 ± 3%
- arm entries (zebrafish (Danio rerio) [2]; [7]): 30 ± 9 entries
- time frozen in the middle (zebrafish (Danio rerio) [2]; [7]): 57 ± 17 s
- total time spent in white arms (zebrafish (Danio rerio) [2]; [7]): 56 ± 24 s
- time spent in white arms, effect (zebrafish (Danio rerio) [2]; [8]): no effect
- white arm entries, effect (zebrafish (Danio rerio) [2]; [8]): no effect
- % white arm entries of total entries, effect (zebrafish (Danio rerio) [2]; [9]): no effect
- initial time frozen in centre (latency to enter an arm), effect (zebrafish (Danio rerio) [2]; [9]): no influence
- time spent in white arms, effect (zebrafish (Danio rerio) [2]; [9]): nor was there an effect
- total number of arm entries, effect (zebrafish (Danio rerio) [2]; [9]): no effect

Structure (SMILES): CNCCCN1c2ccccc2CCc2ccccc21 [desipramine]
- time spent in top of dive tank, effect vs untreated (zebrafish (Danio rerio) [1]; [6]): significantly more time in the top of the dive tank than untreated fish
- anxiolytic behaviors in the plus maze (zebrafish (Danio rerio) [2]; 25 mg/L, PETCO zebrafish): neither desipramine nor citalopram produced any anxiolytic behaviors in the plus maze
- arm entries, effect vs controls (zebrafish (Danio rerio) [2]; [6]): Neither nicotine nor desipramine exposure had any effect on arm entries
